Test system: GFP-tagged TDP-43
Test: Distribution of GFP-tagged TDP-43 in M17 cells
Assay type: cell-based, human
Set-up: distribution of GFP-tagged TDP-43 / translocation of GFP-tagged TDP-43 with Nilotinib or Bosutinib: unit of the concentration uncertain
Method: Human neuroblastoma M17 cells (seeding density 2×10^5 cells) were grown in 24 well dishes (Falcon) to 70% confluence in Dulbecco's Modified Eagle Medium (DMEM; Invitrogen) plus 10% (v/v) heat-inactivated fetal bovine serum (Invitrogen), penicillin/streptomycin, and 2 mM L-glutamine at 37° C. and 5% CO2, washed twice in phosphate-buffered saline (PBS). Transient transfection was performed with 3 μg parkin cDNA or 3 μg TDP-43 cDNA, or 3 μg LacZ cDNA. Cells were treated with 5 μM tubacin for 24 hours and DAPI stained in 12 well dishes. Cells were harvested 24 hours after transfection. Transfection was performed in DMEM without serum using Lipofectamine 2000 (Invitrogen) according to the manufacturer's protocol. […] Western blot was performed on NuPAGE 4-12% Bis-Tris gel (Invitrogen). Protein estimation was performed using the microscale BioRad protein assay (BioRad Laboratories Inc, Hercules, Calif., USA).
To ascertain that both parkin and HDAC6 are required for TDP-43 translocation, GFP-tagged TDP-43 was expressed in M17 neuroblastoma cells in the presence of wild type or loss-of-function mutant (T240R) parkin, and treated with 5 μM selective HDAC6 inhibitor for 24 hours.
The following data support these conclusions.

For `O=C(CCCCCCC(=O)Nc1ccc([C@H]2O[C@@H](CSc3nc(-c4ccccc4)c(-c4ccccc4)o3)C[C@@H](c3ccc(CO)cc3)O2)cc1)NO` [Tubacin], the “GFP fluorescence (GFP-TDP-43) in the cytosol” value (5 μM for 24 hours, presence or absence of parkin) was “did not lead to GFP fluorescence in the cytosol” and the “translocation of GFP-tagged TDP-43 with Nilotinib or Bosutinib” value (Tubacin (5 µM) for additional 24 hrs) was “impairs translocation”.
